The assay relates to human neuroblastoma (SH-SY5Y). Kind of assay: Apoptosis suppressing action caused by amyloid β in human neuroblastoma (Hoechst 33342 staining). It counts as cell-based. Here is the method:
The proportion of apoptotic cells in human neuroblastoma (SH-SY5Y; obtained from ATCC) in the presence of an autophagy activator was measured by the following test method to evaluate the apoptosis suppressing action of the autophagy activator.
In the following examples and comparative examples, tests were performed by adding amyloid β, which is known to induce cell death called apoptosis of nerve cells due to a decrease in autophagy, to each medium.
SH-SY5Y cells were prepared at a seeding density of 50000 cells/cm^2 and cultured for 24 hours in D-MEM medium/Ham's F-12 medium (manufactured by Sigma-Aldrich) to which 10% fetal bovine serum (manufactured by MP Biomedicals) was added. […]
Thereafter, an aqueous solution of 10 μM Hoechst 33342 (manufactured by Sigma-Aldrich) was added to each SH-SY5Y cell from which the medium was removed, and the cells were allowed to stand at room temperature (25° C.) for 10 minutes. After removing the solution, each SH-SY5Y cell was washed with phosphate buffer (PBS, manufactured by Wako Pure Chemical Industries, Ltd.), and with a fluorescence microscope, the number of cells showing strong apoptosis-like Hoechst fluorescence due to chromatin aggregation (Hoechst (+) cells) was counted. […]

For the compound `COc1ccc([C@@H]2CC(=O)c3c(O)cc(O[C@@H]4O[C@H](CO[C@@H]5O[C@@H](C)[C@H](O)[C@@H](O)[C@H]5O)[C@@H](O)[C@H](O)[C@H]4O)cc3O2)cc1O` [Comparative Example 2, hesperidin], under “SH-SY5Y cells with amyloid β, compared to DMSO and amyloid β of Comparative Example 7”, the “proportion of apoptotic cells (in words)” value is reported as “decreased”. The “Proportion of apoptotic cells” value (SH-SY5Y cells, 30 μM amyloid β present, 10^−2% (V/V) methyl hesperidin or hesperidin, additional ingredient where in the example, 48 hours, relative value, Reference Example 4 = 1.00) is 3.76.

Values taken from patent publication US20230355646A1, “AUTOPHAGY ACTIVATOR” (Resonac Corporation, priority 2020, published 2023).
